The structures appear in SMILES notation. The source made the active and inactive calls. Bounds are passed on as bounds.

A word on the AC50: it is the midpoint of the concentration-response curve, whichever way the signal moves. What is called IC50 is the concentration that gives 50% inhibition. In general, EC50 refers to the concentration that produces a half-maximal response.

Assay [1] has as its target T1, Histone-lysine N-methyltransferase NSD2 (Homo sapiens, UniProt O96028).
T1 sequence (O96028 whole entry): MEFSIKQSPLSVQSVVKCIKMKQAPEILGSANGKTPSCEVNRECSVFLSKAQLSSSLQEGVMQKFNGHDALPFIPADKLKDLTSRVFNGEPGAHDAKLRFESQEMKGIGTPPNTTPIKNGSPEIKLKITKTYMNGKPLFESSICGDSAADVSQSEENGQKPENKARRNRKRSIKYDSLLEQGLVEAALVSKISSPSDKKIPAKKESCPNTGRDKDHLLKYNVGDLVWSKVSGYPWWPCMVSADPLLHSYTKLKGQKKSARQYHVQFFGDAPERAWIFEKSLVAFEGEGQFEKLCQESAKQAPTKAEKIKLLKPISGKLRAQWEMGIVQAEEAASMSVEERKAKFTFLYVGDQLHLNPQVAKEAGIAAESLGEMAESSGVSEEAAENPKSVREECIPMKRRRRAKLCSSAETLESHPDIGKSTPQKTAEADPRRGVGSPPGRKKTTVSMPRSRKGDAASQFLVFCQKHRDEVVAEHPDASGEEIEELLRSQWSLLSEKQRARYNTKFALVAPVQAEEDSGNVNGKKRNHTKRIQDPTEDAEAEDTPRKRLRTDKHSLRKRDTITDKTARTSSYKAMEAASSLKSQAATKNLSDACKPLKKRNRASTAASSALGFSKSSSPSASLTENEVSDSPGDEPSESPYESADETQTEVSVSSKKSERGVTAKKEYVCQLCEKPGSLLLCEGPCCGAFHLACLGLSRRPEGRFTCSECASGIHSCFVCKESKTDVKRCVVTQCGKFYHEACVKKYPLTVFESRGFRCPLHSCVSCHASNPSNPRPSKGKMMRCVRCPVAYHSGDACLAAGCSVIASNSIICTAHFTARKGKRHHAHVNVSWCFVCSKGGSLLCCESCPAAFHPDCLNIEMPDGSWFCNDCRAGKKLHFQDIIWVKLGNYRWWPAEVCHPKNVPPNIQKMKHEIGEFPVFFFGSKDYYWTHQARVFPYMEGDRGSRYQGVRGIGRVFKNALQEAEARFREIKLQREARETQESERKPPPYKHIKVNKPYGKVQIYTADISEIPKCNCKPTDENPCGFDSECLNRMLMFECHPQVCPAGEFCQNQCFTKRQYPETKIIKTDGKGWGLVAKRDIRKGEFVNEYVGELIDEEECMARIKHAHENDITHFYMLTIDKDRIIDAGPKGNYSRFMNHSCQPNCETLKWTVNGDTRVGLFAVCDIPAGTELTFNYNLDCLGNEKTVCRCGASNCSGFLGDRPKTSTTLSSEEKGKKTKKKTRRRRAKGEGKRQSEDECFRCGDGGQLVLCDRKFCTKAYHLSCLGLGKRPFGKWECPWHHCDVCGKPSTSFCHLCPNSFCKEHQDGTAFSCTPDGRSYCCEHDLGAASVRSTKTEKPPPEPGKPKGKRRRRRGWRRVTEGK
In kind it is biochemical.

Another assay deals with Caspase-6 (Homo sapiens, UniProt P55212). The experiment in a line: inhibition of CASP6 peptide cleavage – biochemical, VEID-R110 fluorescence, cherry-pick, dose response (AID 720632).
The test system of another assay is HeLa. Kind of assay: viability loss in HeLa cells – cell-based, 24 h, cherry-picked samples, cytotoxicity control, dose response (AID 504726).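 Also: potency for cytotoxicity as loss of luminescence signal.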 Conditions: Homo sapiens. In kind it is functional.
For assay [2], the target named is DNA dC->dU-editing enzyme APOBEC-3G (Homo sapiens, UniProt Q9HC16). Kind of assay: Dose Response confirmation of small molecule APOBEC3G DNA Deaminase Inhibitors via a fluorescence-based single-stranded DNA deaminase assay. [Related pubchem assays (depositor defined):AID493012, AID493028]. In kind it is functional.
The target in assay [3] is DNA dC->dU-editing enzyme APOBEC-3A (Homo sapiens, UniProt P31941). Kind of assay: A3A deaminase inhibition for selectivity – biochemical, dose response (AID 504722). In kind it is functional.
Assay [4] addresses T2, Heat shock factor protein 1 (Mus musculus, UniProt P38532).
T2 sequence (P38532 whole entry): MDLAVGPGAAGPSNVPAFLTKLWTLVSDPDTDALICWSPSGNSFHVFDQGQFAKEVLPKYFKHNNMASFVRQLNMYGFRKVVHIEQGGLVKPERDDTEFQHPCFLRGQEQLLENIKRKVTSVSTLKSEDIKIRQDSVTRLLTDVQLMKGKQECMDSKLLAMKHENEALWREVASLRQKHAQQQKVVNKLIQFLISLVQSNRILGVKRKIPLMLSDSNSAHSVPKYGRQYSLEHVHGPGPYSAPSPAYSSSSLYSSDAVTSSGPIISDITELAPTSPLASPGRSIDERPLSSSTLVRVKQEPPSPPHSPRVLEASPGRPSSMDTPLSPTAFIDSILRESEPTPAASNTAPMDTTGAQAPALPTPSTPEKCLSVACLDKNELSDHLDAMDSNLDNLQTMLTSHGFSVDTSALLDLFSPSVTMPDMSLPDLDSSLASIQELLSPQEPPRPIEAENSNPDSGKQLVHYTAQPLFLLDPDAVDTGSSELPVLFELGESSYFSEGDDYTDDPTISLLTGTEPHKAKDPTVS
The experiment in a line: decrease of HSF1-responsive luciferase luminescence – cell-based, NIH3T3, dose retest, confirmation (AID 2382).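 Also: NIH3T3 fibroblasts with HSF1-driven luciferase reporter stressed by proteasome inhibitor MG132; luminescence from HSF1-driven luciferase expression after 8 hours of MG132 stress.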 In kind it is functional.

In another assay the test system is Streptococcus. Kind of assay: GAS UMAA2166 growth inhibition – luminescence, BacTiterGlo, counter-screen for streptokinase expression inhibitor project, dose response (AID 1915).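 Also: potency for reduction of bacterial viability or growth.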 In kind it is functional, organism-based. (Counterscreens check selectivity or assay interference.)
Assay [5] deals with G-protein coupled receptor 35 (Homo sapiens, UniProt Q9HC97). The experiment in a line: inhibition of zaprinast-stimulated GPR35 beta-arrestin translocation – imaging, U2OS, beta-arrestin-GFP, zaprinast agonist, primary screen (AID 2058).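 Also: antagonist potency meaning inhibition of agonist-induced arrestin redistribution.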 In kind it is functional.
Assay [6] has as its system Streptococcus sp. 'group A'. Kind of assay: Streptococcus pyogenes SK(-)GAS viability under kanamycin – luminescence, BacTiterGlo, confirmation, counter-screen for streptokinase expression inhibitor project, dose response (AID 1900). In kind it is functional, organism-based.
Assay [7] is described as follows: Luminescence Cell-Based Dose Retest to Confirm Inhibitors of Cancer Stem Cells. [Related pubchem assays (depositor defined):AID2717, AID2721]. In kind it is functional. Particulars: Homo sapiens.

Sequence of DNA dC->dU-editing enzyme APOBEC-3A (P31941 whole entry): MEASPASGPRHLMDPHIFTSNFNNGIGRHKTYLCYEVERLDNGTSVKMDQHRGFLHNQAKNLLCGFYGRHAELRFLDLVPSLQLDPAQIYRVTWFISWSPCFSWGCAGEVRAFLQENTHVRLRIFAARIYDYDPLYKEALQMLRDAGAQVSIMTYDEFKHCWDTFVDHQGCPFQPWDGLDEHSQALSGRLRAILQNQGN
Sequence of DNA dC->dU-editing enzyme APOBEC-3G (Q9HC16 whole entry): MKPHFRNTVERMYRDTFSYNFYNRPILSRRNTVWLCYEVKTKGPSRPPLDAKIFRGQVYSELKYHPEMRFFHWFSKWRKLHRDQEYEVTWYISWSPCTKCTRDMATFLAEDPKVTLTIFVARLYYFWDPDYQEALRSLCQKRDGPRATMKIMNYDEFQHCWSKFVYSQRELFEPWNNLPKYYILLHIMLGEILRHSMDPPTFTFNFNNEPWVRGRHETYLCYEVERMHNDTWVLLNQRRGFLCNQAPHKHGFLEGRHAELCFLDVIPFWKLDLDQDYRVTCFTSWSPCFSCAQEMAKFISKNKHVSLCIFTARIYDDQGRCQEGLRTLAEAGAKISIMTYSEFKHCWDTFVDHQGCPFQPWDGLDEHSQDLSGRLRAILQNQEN
Sequence of Caspase-6 (P55212 24-179 limits assumed): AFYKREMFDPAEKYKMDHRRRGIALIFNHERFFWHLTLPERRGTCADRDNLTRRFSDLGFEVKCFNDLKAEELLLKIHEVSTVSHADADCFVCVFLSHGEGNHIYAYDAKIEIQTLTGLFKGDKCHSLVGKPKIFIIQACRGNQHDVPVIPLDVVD
Sequence of Caspase-6 (P55212 194-293 limits assumed): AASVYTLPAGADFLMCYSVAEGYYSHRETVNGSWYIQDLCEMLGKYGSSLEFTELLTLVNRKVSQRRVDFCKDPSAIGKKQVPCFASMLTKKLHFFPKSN
Sequence of G-protein coupled receptor 35 (Q9HC97 whole entry): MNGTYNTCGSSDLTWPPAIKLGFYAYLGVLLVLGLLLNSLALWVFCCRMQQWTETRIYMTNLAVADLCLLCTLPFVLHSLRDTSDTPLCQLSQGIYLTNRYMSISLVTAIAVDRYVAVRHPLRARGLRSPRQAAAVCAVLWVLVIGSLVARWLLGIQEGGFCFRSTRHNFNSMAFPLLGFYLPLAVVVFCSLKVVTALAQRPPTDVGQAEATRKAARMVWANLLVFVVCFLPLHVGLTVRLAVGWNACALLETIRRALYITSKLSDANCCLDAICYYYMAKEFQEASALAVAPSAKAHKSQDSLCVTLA

Turning to `CCN(C(=O)COC(=O)c1ccc([N+](=O)[O-])o1)C1CCCCC1`, the AC50 is > 20 µM (inactive) in [1], 34.1 µM (active) on Caspase-6 and > 350 µM (inactive) with HeLa.

In the case of `C=CCn1c(-c2cccc(Cl)c2)n[nH]c1=S`, the IC50 in assay [2] is 6.21 µM (active); in assay [3], > 100 µM (inactive).

Turning to `CC12CCC(C/C1=N\NC1=NC(=O)/C(=C\c3ccc(Cl)cc3)S1)C2(C)C` (configuration not stated), the EC50 in assay [4] is 1.2 µM (active); in the assay with Streptococcus, 2.34 µM (active); in [6], 1.18 µM (active). Further, the IC50 in assay [5] is 13.9 µM (inactive). Also, the AC50 in [7] was 2.16 µM (active).

Regarding `COc1cccc(/C=N/n2c(S)nnc2-c2[nH]nc3c2CCC3)c1OC`, the IC50 was 3.45 µM (active) in assay [2] and > 100 µM (inactive) in [3].

The values are drawn from ChEMBL document CHEMBL1201862, “PubChem BioAssay data set” (2004).
